Source: the supplement of paper PMC11061612

Experiments:
Experiment in all cases: Bliss excess, mean over the matrix (fraction); higher = more synergy
[1] = test system: ALL-PO (B-Lymphoblastic Leukemia)
Summary of the method: (§1)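 Bliss excess equals the observed combination effect minus the expected value EA + EB − EA·EB, where EA and EB are the effects of each agent alone. Combination Emax is the second-highest inhibition within the matrix. Inhibition was scaled from CellTiter-Glo 2.0 luminescence, with 0 set by vehicle wells and 1 by blank wells, after 72 hours of two-drug dosing of cells plated in 1536-well plates.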

[2] = test system: BFTC-909 (Kidney Carcinoma)
Summary of the method: as §1

[3] = test system: CAL-33 (Oral Cavity Carcinoma)
Summary of the method: as §1

[4] = test system: ESS-1 (Other Solid Carcinomas)
Summary of the method: as §1

EW-11 (Ewing's Sarcoma) = test system: EW-11 (Ewing's Sarcoma)
Summary of the method: as §1

[5] = test system: FTC-133 (Thyroid Gland Carcinoma)
Summary of the method: as §1

GAMG (Glioblastoma) = test system: GAMG (Glioblastoma)
Summary of the method: as §1

[6] = test system: HH (T-Cell Non-Hodgkin's Lymphoma)
Summary of the method: as §1

[7] = test system: HuCCT1 (Biliary Tract Carcinoma)
Summary of the method: as §1

[8] = test system: L-428 (Hodgkin's Lymphoma)
Summary of the method: as §1

[9] = test system: LNZTA3WT4 (Low Grade Glioma)
Summary of the method: as §1

LOXIMVI (Melanoma) = test system: LOXIMVI (Melanoma)
Summary of the method: as §1

[10] = test system: MHH-CALL-2 (B-Lymphoblastic Leukemia)
Summary of the method: as §1

NCI-H2052 (Mesothelioma) = test system: NCI-H2052 (Mesothelioma)
Summary of the method: as §1

[11] = test system: NCI-H209 (Small Cell Lung Carcinoma)
Summary of the method: as §1

[12] = test system: NUGC-4 (Gastric Carcinoma)
Summary of the method: as §1

[13] = test system: OV-56 (Ovarian Carcinoma)
Summary of the method: as §1

[14] = test system: OVCAR-5 (Ovarian Carcinoma)
Summary of the method: as §1

[15] = test system: SW1710 (Bladder Carcinoma)
Summary of the method: as §1

[16] = test system: YAPC (Pancreatic Carcinoma)
Summary of the method: as §1

Structure (SMILES)	Bliss excess [1]	Bliss excess [2]	Bliss excess [3]	Bliss excess [4]	Bliss excess (EW-11 (Ewing's Sarcoma))	Bliss excess [5]	Bliss excess (GAMG (Glioblastoma))	Bliss excess [6]	Bliss excess [7]	Bliss excess [8]	Bliss excess [9]	Bliss excess (LOXIMVI (Melanoma))	Bliss excess [10]	Bliss excess (NCI-H2052 (Mesothelioma))	Bliss excess [11]	Bliss excess [12]	Bliss excess [13]	Bliss excess [14]	Bliss excess [15]	Bliss excess [16]
Cc1c2c(nn1C)CSCc1cc(n(C)n1)CSc1cc(c3ccccc3c1)OCCCc1c(C(=O)O)n(C)c3c-2c(Cl)ccc13 [AZD5991] + C[C@@H]1COCCN1C2=NC(=NC(=C2)C3(CC3)[S@](=N)(=O)C)C4=C5C=CNC5=NC=C4 [AZD6738] (first compound max 1 µM, 7x7, partner max 10 µM)	0.0236	0.0508	0.0008	-0.0451	0.0217	0.0969	0.0116	0.0317	0.0206	0.023	-0.0028	-0.0373	0.0225	0.039	0.138	0.02	0.0293	-0.0248	0.0299	0.0715
CC1(C)CCC(CN2CCN(c3ccc(C(=O)NS(=O)(=O)c4ccc(NCC5CCOCC5)c([N+](=O)[O-])c4)c(Oc4cnc5[nH]ccc5c4)c3)CC2)=C(c2ccc(Cl)cc2)C1 [Venetoclax] + CN(C)CCCOc1ccc(-c2ccc3ncc4c(c3c2)n(C2CCOCC2)c(=O)n4C)cn1 [AZD0156] (first compound max 1 µM, 7x7, partner max 1 µM)	0.108	0.0072	-0.0064	-0.0515	0.0067	0.0019	-0.0225	-0.0066	-0.002	-0.0057	-0.0469	0.0539	0.0128	-0.0184	0.0423	-0.0644	0.0022	-0.0195	-0.0264	-0.02
Cc1c2c(nn1C)CSCc1cc(n(C)n1)CSc1cc(c3ccccc3c1)OCCCc1c(C(=O)O)n(C)c3c-2c(Cl)ccc13 [AZD5991] + C1CN(CCC1(C(=O)N[C@@H](CCO)C2=CC=C(C=C2)Cl)N)C3=NC=NC4=C3C=CN4 [Capivasertib] (first compound max 1 µM, 7x7, partner max 3 µM)	0.0327	0.0265	0.0067	-0.0113	-0.02	0.0062	-0.0239	0.0176	-0.0405	-0.0007	0.0495	-0.0067	0.0182	-0.0083	0.0273	-0.0228	-0.0006	-0.0337	-0.0407	-0.0095
Cc1c2c(nn1C)CSCc1cc(n(C)n1)CSc1cc(c3ccccc3c1)OCCCc1c(C(=O)O)n(C)c3c-2c(Cl)ccc13 [AZD5991] + CN(C)CCCOc1ccc(-c2ccc3ncc4c(c3c2)n(C2CCOCC2)c(=O)n4C)cn1 [AZD0156] (first compound max 1 µM, 7x7, partner max 1 µM)	-0.0005	0.0101	0.0215	0.0027	-0.0946	-0.0105	0.0339	-0.0248	-0.04	0.0294	-0.0135	0.0016	0.0053	-0.0027	0.008	-0.0305	-0.0276	-0.024	-0.0134	0.0081
Cc1c2c(nn1C)CSCc1cc(n(C)n1)CSc1cc(c3ccccc3c1)OCCCc1c(C(=O)O)n(C)c3c-2c(Cl)ccc13 [AZD5991] + C[C@@H](Nc1cc(F)cc(F)c1)c1cc(C(=O)N(C)C)cc2c(=O)cc(N3CCOCC3)oc12 [AZD8186] (first compound max 1 µM, 7x7, partner max 3 µM)	-0.0248	0.0188	-0.0099	-0.045	-0.0009	-0.0065	-0.0458	0.105	0.021	-0.0085	0.0055	-0.0227	-0.0188	0.0011	-0.0154	-0.0056	0.017	-0.0106	-0.0083	-0.0159
Cn1cnc2c(F)c(Nc3ccc(Br)cc3Cl)c(C(=O)NOCCO)cc21 [Selumetinib] + C[C@@H]1COCCN1C2=NC(=NC(=C2)C3(CC3)[S@](=N)(=O)C)C4=C5C=CNC5=NC=C4 [AZD6738] (first compound max 10 µM, 7x7, partner max 10 µM)	0.0391	-0.025	0.0115	0.024	-0.0605	-0.0828	-0.0398	-0.038	-0.0164	-0.0311	-0.0661	0.0322	0.0085	0.0119	-0.0403	0.0069	-0.0239	-0.0236	-0.0481	-0.0019
CC1(C)CCC(CN2CCN(c3ccc(C(=O)NS(=O)(=O)c4ccc(NCC5CCOCC5)c([N+](=O)[O-])c4)c(Oc4cnc5[nH]ccc5c4)c3)CC2)=C(c2ccc(Cl)cc2)C1 [Venetoclax] + Cc1cc2ncnn2cc1Nc1ncc2c(n1)n(C1CCOCC1)c(=O)n2C [AZD7648] (first compound max 1 µM, 7x7, partner max 10 µM)	0.11	0.0017	0.0043	-0.0501	0.0082	-0.0156	-0.024	-0.0061	-0.0609	-0.0548	-0.0353	-0.0277	-0.0228	-0.0019	0.0416	-0.0714	0.0016	-0.075	-0.0217	-0.0143
